Experimental data from patent US8017786B2, “Substituted β-phenyl-α-hydroxy-propanoic acid, synthesis method and use thereof” (Northwest University, priority 2006, dated 2011).

Test system: anesthetized rats
Assay: Blood pressure and left ventricular function of anesthetized rats
Type: in vivo, rat
Design: contractive pressure, change ratio: unit not given here
Procedure: All data were input into PowerLab/8Sp data acquisition and processing system via RM-6000 multi-channel polygraph, and recorded, analyzed and processed by PowerLab/8Sp.
The abdomen was opened 1.5 cm below xiphoid bone to isolate duodenum, a small incision was formed on the duodenum away from blood vessels by ophthalmic scissors, a catheter was inserted and the incision was fixed by suture for administration. After the end of operation and a further waiting period of 30 min, normal data were recorded once the indexes to be monitored were stable.
Test drugs were duodenally administered via the catheter, and the indexes were monitored 5, 15, 30, 60, 90 and 120 min after the administration. The change ratios of the indexes were calculated in accordance with the following formula, and were used for statistic analysis among groups.

[1] = 9 mg/kg duodenal, 60 min after administration
[2] = 9 mg/kg duodenal, 90 min after administration
[3] = 9 mg/kg duodenal, 120 min after administration
[4] = 9 mg/kg duodenal, before administration
[5] = 18 mg/kg duodenal, 5 min after administration
[6] = 18 mg/kg duodenal, 15 min after administration
[7] = 18 mg/kg duodenal, 30 min after administration
[8] = 18 mg/kg duodenal, 60 min after administration
[9] = 18 mg/kg duodenal, 90 min after administration
[10] = 18 mg/kg duodenal, 120 min after administration
[11] = 18 mg/kg duodenal, before administration
[12] = 18 mg/kg, significant at 15, 30, 60, 90 and 120 min

With CC1(C)C2CCC1(C)C(OC(=O)C(O)Cc1ccc(O)c(O)c1)C2 (stereo not drawn) [bornyl salvianate ester, bornyl β-(3,4-dihydroxylphenyl)-α-hydroxylpropionate ester] the “contractive pressure, change ratio” value [1] was −12.63 ± 11.39, the diastolic pressure [1] was 59.10 ± 16.07 mmHg and the “diastolic pressure, change ratio” value [1] was −14.30 ± 13.75. For the same compound, the heart rate [1] was 359.61 ± 39.30 beat/min, the “heart rate, change ratio” value [1] was −4.52 ± 7.13 and the left intraventricular pressure [1] was 119.77 ± 23.09 mmHg. The “left intraventricular pressure, change ratio” value [1] was −6.84 ± 8.75, the mean arterial pressure [1] was 77.89 ± 18.11 mmHg and the “mean arterial pressure, change ratio” value [1] was −13.46 ± 12.43. The “change-rate of left intraventricular pressure MAX” value [2] was 5113.5 ± 1356.4 mmHg/s, the “change-rate of left intraventricular pressure MAX, change ratio” value [2] was −6.4 ± 13.2 and the “change-rate of left intraventricular pressure, -MAX” value [2] was −3629.7 ± 1013.3 mm/Hg/s. The “change-rate of left intraventricular pressure, -MAX, change ratio” value (shortened to “change-rate … -MAX, change ratio”) [2] was −7.2 ± 13.3, the contractive pressure [2] was 120.90 ± 31.83 mmHg and the “contractive pressure, change ratio” value [2] was −8.80 ± 16.65. For the same compound, the diastolic pressure [2] was 63.12 ± 19.81 mmHg, the “diastolic pressure, change ratio” value [2] was −8.83 ± 17.11 and the heart rate [2] was 354.38 ± 62.30 beat/min. For the same compound, the “heart rate, change ratio” value [2] was −4.13 ± 17.94, the left intraventricular pressure [2] was 122.40 ± 26.58 mmHg and the “left intraventricular pressure, change ratio” value [2] was −4.88 ± 11.37. For the same compound, the mean arterial pressure [2] was 82.38 ± 23.18 mmHg, the “mean arterial pressure, change ratio” value [2] was −8.77 ± 16.66 and the “change-rate of left intraventricular pressure MAX” value [3] was 4959.8 ± 1399.0 mmHg/s. For the same compound, the “change-rate of left intraventricular pressure MAX, change ratio” value [3] was −9.7 ± 11.2, the “change-rate of left intraventricular pressure, -MAX” value [3] was −3541.7 ± 917.7 mm/Hg/s and the “change-rate … -MAX, change ratio” value [3] was −9.2 ± 11.3. The contractive pressure [3] was 120.85 ± 32.13 mmHg, the “contractive pressure, change ratio” value [3] was −9.19 ± 14.65 and the diastolic pressure [3] was 62.58 ± 22.20 mmHg. For the same compound, the “diastolic pressure, change ratio” value [3] was −10.28 ± 17.60, the heart rate [3] was 354.09 ± 47.98 beat/min and the “heart rate, change ratio” value [3] was −4.62 ± 12.34. For the same compound, the left intraventricular pressure [3] was 121.85 ± 26.36 mmHg, the “left intraventricular pressure, change ratio” value [3] was −5.47 ± 9.76 and the mean arterial pressure [3] was 82.00 ± 25.04 mmHg. The “mean arterial pressure, change ratio” value [3] was −9.71 ± 15.95, the “change-rate of left intraventricular pressure MAX” value [4] was 5435.8 ± 1200.0 mmHg/s and the “change-rate of left intraventricular pressure, -MAX” value [4] was −3881.3 ± 735.6 mm/Hg/s. For the same compound, the contractive pressure [4] was 132.26 ± 20.00 mmHg, the diastolic pressure [4] was 69.21 ± 15.19 mmHg and the heart rate [4] was 373.43 ± 41.28 beat/min. The left intraventricular pressure [4] was 128.29 ± 18.38 mmHg, the mean arterial pressure [4] was 90.23 ± 16.25 mmHg and the “mean arterial pressure, systolic pressure and diastolic pressure (in words)” value (9 mg/kg, significant at 15 and 60 min) was “exhibited a decrease tendency”. The “dp/dt (in words)” value (9 mg/kg, significant at 60 and 120 min) was “exhibited a decrease tendency”, the “left intraventricular pressure (in words)” value (9 mg/kg, significant at 60 min) was “exhibited a decrease tendency” and the “change-rate of left intraventricular pressure MAX” value [5] was 5694.7 ± 1264.7 mmHg/s. For the same compound, the “change-rate of left intraventricular pressure MAX, change ratio” value [5] was −0.3 ± 9.3, the “change-rate of left intraventricular pressure, -MAX” value [5] was −4103.4 ± 981.2 mm/Hg/s and the “change-rate … -MAX, change ratio” value [5] was 0.0 ± 7.8. The contractive pressure [5] was 128.34 ± 28.96 mmHg, the “contractive pressure, change ratio” value [5] was −0.06 ± 12.42 and the diastolic pressure [5] was 72.55 ± 16.58 mmHg. The “diastolic pressure, change ratio” value [5] was −1.00 ± 14.79, the heart rate [5] was 358.56 ± 44.88 beat/min and the “heart rate, change ratio” value [5] was 0.22 ± 4.94. For the same compound, the left intraventricular pressure [5] was 131.90 ± 18.96 mmHg, the “left intraventricular pressure, change ratio” value [5] was −0.01 ± 7.29 and the mean arterial pressure [5] was 91.15 ± 20.31 mmHg. The “mean arterial pressure, change ratio” value [5] was −0.58 ± 13.53, the “change-rate of left intraventricular pressure MAX” value [6] was 5470.3 ± 1416.7 mmHg/s and the “change-rate of left intraventricular pressure MAX, change ratio” value [6] was −4.7 ± 11.8. The “change-rate of left intraventricular pressure, -MAX” value [6] was −3991.9 ± 948.6 mm/Hg/s, the “change-rate … -MAX, change ratio” value [6] was −2.4 ± 9.3 and the contractive pressure [6] was 120.90 ± 26.54 mmHg. The “contractive pressure, change ratio” value [6] was −5.49 ± 14.53, the diastolic pressure [6] was 68.87 ± 14.57 mmHg and the “diastolic pressure, change ratio” value [6] was −5.45 ± 15.82. For the same compound, the heart rate [6] was 356.00 ± 40.82 beat/min, the “heart rate, change ratio” value [6] was −0.07 ± 9.93 and the left intraventricular pressure [6] was 126.28 ± 18.51 mmHg. The “left intraventricular pressure, change ratio” value [6] was −4.15 ± 8.95, the mean arterial pressure [6] was 86.21 ± 18.29 mmHg and the “mean arterial pressure, change ratio” value [6] was −5.52 ± 14.99. The “change-rate of left intraventricular pressure MAX” value [7] was 5186.9 ± 1177.3 mmHg/s, the “change-rate of left intraventricular pressure MAX, change ratio” value [7] was −8.9 ± 11.5 and the “change-rate of left intraventricular pressure, -MAX” value [7] was −3923.8 ± 879.8 mm/Hg/s. The “change-rate … -MAX, change ratio” value [7] was −3.9 ± 8.2, the contractive pressure [7] was 117.76 ± 22.90 mmHg and the “contractive pressure, change ratio” value [7] was −7.74 ± 12.22. The diastolic pressure [7] was 66.68 ± 11.95 mmHg, the “diastolic pressure, change ratio” value [7] was −7.68 ± 16.90 and the heart rate [7] was 348.07 ± 39.21 beat/min. The “heart rate, change ratio” value [7] was −2.01 ± 12.45, the left intraventricular pressure [7] was 124.81 ± 18.94 mmHg and the “left intraventricular pressure, change ratio” value [7] was −5.46 ± 7.09. The mean arterial pressure [7] was 83.71 ± 15.31 mmHg, the “mean arterial pressure, change ratio” value [7] was −7.79 ± 14.45 and the “change-rate of left intraventricular pressure MAX” value [8] was 4905.3 ± 1047.7 mmHg/s. For the same compound, the “change-rate of left intraventricular pressure MAX, change ratio” value [8] was −12.4 ± 18.7, the “change-rate of left intraventricular pressure, -MAX” value [8] was −3744.3 ± 851.5 mm/Hg/s and the “change-rate … -MAX, change ratio” value [8] was −7.9 ± 14.0. The contractive pressure [8] was 106.97 ± 32.22 mmHg, the “contractive pressure, change ratio” value [8] was −16.34 ± 19.90 and the diastolic pressure [8] was 60.98 ± 16.13 mmHg. The “diastolic pressure, change ratio” value [8] was −15.66 ± 21.14, the heart rate [8] was 357.22 ± 47.10 beat/min and the “heart rate, change ratio” value [8] was 0.39 ± 13.05. For the same compound, the left intraventricular pressure [8] was 120.67 ± 23.43 mmHg, the “left intraventricular pressure, change ratio” value [8] was −8.71 ± 11.64 and the mean arterial pressure [8] was 76.31 ± 21.36 mmHg. For the same compound, the “mean arterial pressure, change ratio” value [8] was −16.01 ± 20.44, the “change-rate of left intraventricular pressure MAX” value [9] was 4676.5 ± 941.1 mmHg/s and the “change-rate of left intraventricular pressure MAX, change ratio” value [9] was −16.7 ± 15.5. The “change-rate of left intraventricular pressure, -MAX” value [9] was −3659.3 ± 806.3 mm/Hg/s, the “change-rate … -MAX, change ratio” value [9] was −9.2 ± 16.9 and the contractive pressure [9] was 104.23 ± 32.16 mmHg. For the same compound, the “contractive pressure, change ratio” value [9] was −18.68 ± 18.21, the diastolic pressure [9] was 60.29 ± 15.88 mmHg and the “diastolic pressure, change ratio” value [9] was −16.74 ± 18.37. For the same compound, the heart rate [9] was 355.33 ± 9.61 beat/min, the “heart rate, change ratio” value [9] was −0.44 ± 6.91 and the left intraventricular pressure [9] was 117.91 ± 22.68 mmHg. For the same compound, the “left intraventricular pressure, change ratio” value [9] was −10.81 ± 11.60, the mean arterial pressure [9] was 74.94 ± 21.07 mmHg and the “mean arterial pressure, change ratio” value [9] was −17.64 ± 18.17. The “change-rate of left intraventricular pressure MAX” value [10] was 5012.6 ± 777.5 mmHg/s, the “change-rate of left intraventricular pressure MAX, change ratio” value [10] was −10.9 ± 12.4 and the “change-rate of left intraventricular pressure, -MAX” value [10] was −3692.1 ± 863.3 mm/Hg/s. The “change-rate … -MAX, change ratio” value [10] was −8.8 ± 16.9, the contractive pressure [10] was 113.34 ± 24.47 mmHg and the “contractive pressure, change ratio” value [10] was −10.88 ± 16.04. The diastolic pressure [10] was 61.54 ± 13.73 mmHg, the “diastolic pressure, change ratio” value [10] was −14.64 ± 19.58 and the heart rate [10] was 357.68 ± 53.26 beat/min. For the same compound, the “heart rate, change ratio” value [10] was 0.28 ± 12.04, the left intraventricular pressure [10] was 119.85 ± 22.26 mmHg and the “left intraventricular pressure, change ratio” value [10] was −9.13 ± 13.16. The mean arterial pressure [10] was 78.81 ± 17.04 mmHg, the “mean arterial pressure, change ratio” value [10] was −12.96 ± 17.66 and the “change-rate of left intraventricular pressure MAX” value [11] was 5695.0 ± 1086.8 mmHg/s. For the same compound, the “change-rate of left intraventricular pressure, -MAX” value [11] was −4092.0 ± 905.4 mm/Hg/s, the contractive pressure [11] was 128.25 ± 23.86 mmHg and the diastolic pressure [11] was 73.04 ± 11.87 mmHg. For the same compound, the heart rate [11] was 357.28 ± 36.29 beat/min, the left intraventricular pressure [11] was 131.93 ± 16.79 mmHg and the mean arterial pressure [11] was 91.44 ± 15.44 mmHg. The “dp/dt (in words)” value [12] was “significantly decreased”, the “left intraventricular pressure (in words)” value [12] was “significantly decreased” and the “mean arterial pressure, systolic pressure and diastolic pressure (in words)” value (18 mg/kg, significant at 15, 60, 90 and 120 min) was “significantly decreased”.
